Results published in ChEMBL document CHEMBL5338795, “Novel Triazoles with Potent and Broad-Spectrum Antifungal Activity In Vitro and In Vivo” (J Med Chem, 2023).
Values after ≈ are worked out from the molar mass of the structure shown. Active and inactive are the calls of the source. The rule behind the calls is not given here.

Legend:
[1] = tested on: Candida albicans; assay: Antifungal activity against fluconazole-resistant Candida albicans 901 assessed as inhibition of fungal growth measured for 24 hrs by CLSI based microdilution analysis; type: functional
[2] = tested on: Aspergillus fumigatus; assay: Antifungal activity against Aspergillus fumigatus CGMCC3 7795 assessed as reduction in fungal growth incubated for 48 hrs by CLSI based microdilution analysis; type: functional
[3] = biological target: Cytochrome P450 3A4 (Homo sapiens, UniProt P08684); assay: Inhibition of CYP3A4 in human liver microsomes using testosterone as substrate preincubated for 5 mins followed by NADPH addition and measured after 5 mins by LC-MS/MS analysis; type: ADME, Microsome
Sequence of Cytochrome P450 3A4 (P08684 whole entry): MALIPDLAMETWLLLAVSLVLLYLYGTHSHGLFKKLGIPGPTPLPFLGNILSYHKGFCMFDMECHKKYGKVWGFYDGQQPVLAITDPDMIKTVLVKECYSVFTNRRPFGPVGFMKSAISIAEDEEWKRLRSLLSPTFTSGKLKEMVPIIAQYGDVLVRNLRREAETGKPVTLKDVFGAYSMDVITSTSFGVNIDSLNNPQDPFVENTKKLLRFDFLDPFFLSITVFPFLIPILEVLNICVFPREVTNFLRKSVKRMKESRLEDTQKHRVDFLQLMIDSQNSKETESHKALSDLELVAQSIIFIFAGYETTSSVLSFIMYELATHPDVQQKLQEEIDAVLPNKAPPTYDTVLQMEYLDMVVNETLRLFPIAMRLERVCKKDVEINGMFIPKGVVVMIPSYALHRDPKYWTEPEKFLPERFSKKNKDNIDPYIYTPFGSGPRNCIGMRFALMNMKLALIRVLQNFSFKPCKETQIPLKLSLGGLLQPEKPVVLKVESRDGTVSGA

[4] = tested on: Candida albicans; assay: Antifungal activity against fluconazole-resistant Candida albicans 15 assessed as inhibition of fungal growth measured for 24 hrs by CLSI based microdilution analysis; type: functional
[5] = tested on: Meyerozyma guilliermondii; assay: Antifungal activity against Meyerozyma guilliermondii ATCC 6260 assessed as reduction in fungal growth incubated for 24 hrs by CLSI based microdilution analysis; type: functional
[6] = Hemolytic activity in mouse RBC assessed as hemolysis at 100 microg/ml incubated for 60 mins relative to control; type: toxicity, cell-based, Erythrocyte; settings: red blood cells (erythrocytes), at 100 µg/mL, read-out: Activity
[7] = tested on: Candida parapsilosis; assay: Antifungal activity against Candida parapsilosis ATCC 22019 assessed as reduction in fungal growth incubated for 24 hrs by CLSI based microdilution analysis; type: functional; settings: Lodderomyces parapsilosis
[8] = tested on: Cryptococcus neoformans; assay: Antifungal activity against Cryptococcus neoformans CGMCC3 1563 assessed as reduction in fungal growth incubated for 72 hrs by CLSI based microdilution analysis; type: functional
[9] = tested on: Candida albicans; assay: Antifungal activity against fluconazole-resistant Candida albicans 112869 assessed as inhibition of fungal growth measured for 24 hrs by CLSI based microdilution analysis; type: functional
[10] = tested on: Candida albicans; assay: Antifungal activity against Candida albicans SC5314 assessed as reduction in fungal growth incubated for 24 hrs by CLSI based microdilution analysis; type: functional
[11] = tested on: Candida albicans; assay: Antifungal activity against fluconazole-resistant Candida albicans 24D assessed as inhibition of fungal growth measured for 24 hrs by CLSI based microdilution analysis; type: functional
[12] = tested on: Candida tropicalis; assay: Antifungal activity against Candida tropicalis ATCC 750 assessed as reduction in fungal growth incubated for 24 hrs by CLSI based microdilution analysis; type: functional
[13] = tested on: Candida albicans; assay: Antifungal activity against fluconazole-resistant Candida albicans 102 assessed as inhibition of fungal growth measured for 24 hrs by CLSI based microdilution analysis; type: functional
[14] = tested on: Candida albicans; assay: Antifungal activity against fluconazole-resistant Candida albicans 13 assessed as inhibition of fungal growth measured for 24 hrs by CLSI based microdilution analysis; type: functional
[15] = tested on: Nakaseomyces glabratus; assay: Antifungal activity against Candida glabrata ATCC 15126 assessed as reduction in fungal growth incubated for 24 hrs by CLSI based microdilution analysis; type: functional
[16] = tested on: Aspergillus fumigatus; assay: In-vivo antifungal activity against Aspergillus fumigatus CGMCC3 7795 infected in ip dosed ICR mouse model assessed as median survival time administered once daily pretreated for 24 hrs followed by infection and measured every 2 hrs for 5 days; type: functional, organism-based; settings: dose 1.0 mg/kg, time 144.0 hrs
[17] = tested on: Candida albicans; assay: In-vivo antifungal activity against Candida albicans […] infected in skin infected ICR mouse model assessed as wound healing at 0.5 mg/kg, ip pretreated for 24 hrs followed by infection and measured for 5 days; type: functional, organism-based; settings: time 144.0 hrs
[18] = AUC (0 to infinity) in Sprague-Dawley rat at 2 mg/kg, iv measured at 0.08 to 24 hrs by LC-MS/MS analysis; type: ADME, organism-based; set-up: time 0.08-24 hrs, dose 2 mg/kg, route iv; settings: in vivo
[19] = biological target: T1, Lanosterol 14-alpha demethylase (Candida albicans (strain SC5314 / ATCC MYA-2876) (Yeast), UniProt P10613); assay: Inhibition of CYP51 in Candida albicans SC3514 assessed as decrease in eburicol biosynthesis level at 0.5 times MIC80 incubated for 16 hrs by GC-MS analysis (Rvb=21.38%)
T1 sequence (P10613 whole entry): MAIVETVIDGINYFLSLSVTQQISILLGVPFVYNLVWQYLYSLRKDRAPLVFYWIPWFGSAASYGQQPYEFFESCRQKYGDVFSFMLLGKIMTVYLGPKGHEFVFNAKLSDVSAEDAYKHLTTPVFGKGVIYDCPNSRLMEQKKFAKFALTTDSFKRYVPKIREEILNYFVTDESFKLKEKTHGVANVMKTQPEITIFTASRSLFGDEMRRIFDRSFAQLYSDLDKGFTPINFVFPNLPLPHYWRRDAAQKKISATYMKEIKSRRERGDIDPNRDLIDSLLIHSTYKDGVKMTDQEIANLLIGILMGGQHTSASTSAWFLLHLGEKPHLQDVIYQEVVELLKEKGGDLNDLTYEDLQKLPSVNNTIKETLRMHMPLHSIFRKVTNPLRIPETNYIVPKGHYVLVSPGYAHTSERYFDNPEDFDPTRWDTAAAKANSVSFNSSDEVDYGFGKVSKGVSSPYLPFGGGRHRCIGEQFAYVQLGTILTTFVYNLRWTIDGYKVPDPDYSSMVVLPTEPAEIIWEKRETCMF

[20] = tested on: Candida albicans; assay: In-vivo antifungal activity against Candida albicans […] infected in skin infected ICR mouse model assessed as reduction in fungal burden in skin at 1 mg/kg, ip pretreated for 24 hrs followed by infection and measured for 5 days by Periodic acid-Schiff staining based analysis; type: functional, organism-based; settings: time 144.0 hrs
[21] = biological target: T1, Lanosterol 14-alpha demethylase; assay: Inhibition of CYP51 in Candida albicans […] assessed as decrease in lanosterol biosynthesis level at 0.5 times MIC80 incubated for 16 hrs by GC-MS analysis relative to control
[22] = tested on: CYP3A4; assay: Selectivity index, ratio of MIC80 for antifungal activity against Candida albicans to IC50 for inhibition of CYP3A4 in human liver microsomes; type: toxicity; settings: read-out: Selectivity Index
[23] = tested on: Candida albicans; assay: In-vivo antifungal activity against Candida albicans […] infected in skin infected ICR mouse model assessed as wound healing at 1 mg/kg, ip pretreated for 24 hrs followed by infection and measured for 5 days; type: functional, organism-based; settings: time 144.0 hrs
[24] = biological target: T1, Lanosterol 14-alpha demethylase; assay: Inhibition of CYP51 in Candida albicans […] assessed as decrease in unknown sterol biosynthesis level at 1 times MIC80 incubated for 16 hrs by GC-MS analysis relative to control
[25] = biological target: T1, Lanosterol 14-alpha demethylase; assay: Inhibition of CYP51 in Candida albicans […] assessed as decrease in unknown sterol biosynthesis level at 0.5 times MIC80 incubated for 16 hrs by GC-MS analysis relative to control
[26] = tested on: Candida albicans; assay: In-vivo antifungal activity against Candida albicans […] infected in ICR mouse model assessed as median survival time at 1 mg/kg, ip administered once daily pretreated for 24 hrs followed by infection and measured every 2 hrs for 5 days; type: functional; settings: time 144 hrs
[27] = biological target: T1, Lanosterol 14-alpha demethylase; assay: Inhibition of CYP51 in Candida albicans […] assessed as decrease in ergosterol biosynthesis level at 1 times MIC80 incubated for 16 hrs by GC-MS analysis (Rvb=67.2%)
[28] = Half life in Sprague-Dawley rat at 2 mg/kg, iv measured at 0.08 to 24 hrs by LC-MS/MS analysis; type: ADME, organism-based; settings: in vivo, time 0.08-24 hrs
[29] = Clearance in Sprague-Dawley rat at 2 mg/kg, iv measured at 0.08 to 24 hrs by LC-MS/MS analysis; type: ADME, organism-based; settings: in vivo, time 0.08-24 hrs
[30] = tested on: Candida albicans; assay: In-vivo antifungal activity against multidrug-resistant Candida albicans 24D infected in ICR mouse model assessed as median survival time at 1 mg/kg, ip administered once daily pretreated for 24 hrs followed by infection and measured every 2 hrs for 5 days; type: functional; settings: time 144 hrs
[31] = tested on: Candida albicans; assay: In-vivo antifungal activity against Candida albicans […] infected in skin infected ICR mouse model assessed as reduction in fungal burden in skin at 0.5 mg/kg, ip pretreated for 24 hrs followed by infection and measured for 5 days by Periodic acid-Schiff staining based analysis; type: functional, organism-based; settings: time 144.0 hrs
[32] = tested on: Candida albicans; assay: Induction of resistance development in Candida albicans SC5314 assessed as fold increase in MIC treated over 20 serial passages by microdilution assay; type: functional
[33] = biological target: T1, Lanosterol 14-alpha demethylase; assay: Inhibition of CYP51 in Candida albicans […] assessed as decrease in ergosterol biosynthesis level at 0.5 times MIC80 incubated for 16 hrs by GC-MS analysis (Rvb=67.2%)
[34] = tested on: Candida albicans; assay: Induction of resistance development in Candida albicans SC5314 assessed as increase in MIC treated over 8 serial passages by microdilution assay; type: functional

SMILES	MIC80 [1] [µg/mL]	MIC80 [2] [µg/mL]	IC50 [3] [nM]	MIC80 [4] [µg/mL]	MIC80 [5] [µg/mL]	hemolysis at 1 h, 100 microg/ml [6] [%]	MIC80 [7] [µg/mL]	MIC80 [8] [µg/mL]	MIC80 [9] [µg/mL]	MIC80 [10] [µg/mL]	MIC80 [11] [µg/mL]	MIC80 [12] [µg/mL]	MIC80 [13] [µg/mL]	MIC80 [14] [µg/mL]	MIC80 [15] [µg/mL]	Time [26] [days]	Time [30] [days]	other results
OC(CN1CCN(CCCn2ccc3cc(Br)ccc32)CC1)(Cn1cncn1)c1ccc(F)cc1F (configuration not stated)	1.25 (≈ 2.23 µM)	0.625 (≈ 1.12 µM)	130	1.25 (≈ 2.23 µM)	0.015 (≈ 0.0268 µM)	5.9	0.062 (≈ 0.111 µM)	0.031 (≈ 0.0554 µM)	0.125 (≈ 0.223 µM)	0.031 (≈ 0.0554 µM)	0.062 (≈ 0.111 µM)	0.312 (≈ 0.558 µM)	0.062 (≈ 0.111 µM)	0.031 (≈ 0.0554 µM)	0.312 (≈ 0.558 µM)	–	–	–
O[C@@](CN1CCN(CCn2ccc3cc(Br)ccc32)CC1)(Cn1cncn1)c1ccc(F)cc1F	1.25 (≈ 2.29 µM)	0.625 (≈ 1.15 µM)	400	0.312 (≈ 0.572 µM)	0.015 (≈ 0.0275 µM)	1.9	0.008 (≈ 0.0147 µM)	0.015 (≈ 0.0275 µM)	0.031 (≈ 0.0568 µM)	0.004 (≈ 0.00733 µM)	0.031 (≈ 0.0568 µM)	0.078 (≈ 0.143 µM)	0.015 (≈ 0.0275 µM)	0.015 (≈ 0.0275 µM)	0.078 (≈ 0.143 µM)	6	12	Activity [16]: Dose-Dependent Effect; Activity [17]: Active; AUC(0-inf) [18]: 1260 ng·h/mL; inhibition (INH) [19]: 21.3%; Activity [20]: Active; inhibition (INH) [21]: 13.8%; selectivity ratio [22]: 100; Activity [23]: Active; inhibition (INH) [24]: 27.03%; inhibition (INH) [25]: 14.9%; inhibition (INH) [27]: 5.41%; half-life [28]: 1.04 h; clearance [29]: 26.7 mL/min/kg; Activity [31]: Active; fold change (FC) [32]: 8; inhibition (INH) [33]: 33.33%; Activity [34]: Active
C[C@@H](c1ncncc1F)[C@](O)(Cn1cncn1)c1ccc(F)cc1F [VORICONAZOLE]	> 100	0.312 (≈ 0.893 µM)	–	0.625 (≈ 1.79 µM)	0.062 (≈ 0.177 µM)	–	0.062 (≈ 0.177 µM)	0.031 (≈ 0.0887 µM)	> 100	0.062 (≈ 0.177 µM)	> 100	0.312 (≈ 0.893 µM)	> 100	25 (≈ 71.6 µM)	0.312 (≈ 0.893 µM)	7	9	–
OC(CN1CCN(CCCn2ccc3ccc(Br)cc32)CC1)(Cn1cncn1)c1ccc(F)cc1F (configuration not stated)	2.5 (≈ 4.47 µM)	1.25 (≈ 2.23 µM)	–	2.5 (≈ 4.47 µM)	0.031 (≈ 0.0554 µM)	–	0.062 (≈ 0.111 µM)	0.031 (≈ 0.0554 µM)	0.5 (≈ 0.894 µM)	0.062 (≈ 0.111 µM)	0.125 (≈ 0.223 µM)	0.312 (≈ 0.558 µM)	0.125 (≈ 0.223 µM)	0.031 (≈ 0.0554 µM)	0.312 (≈ 0.558 µM)	–	–	–
